# Tested on: 695427-040-R-J1-PDC complex spheroids, viability percent T/C
# Assay: Anticancer human tumor 695427-040-R-J1-PDC patient-derived colon adenocarcinoma cell line growth inhibition [GQUAD]
# Conditions: for IC50: curve of first compound; for viability, T/C: stronger effect = lower value
# How it was run: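 Viability of tumor cells grown as complex spheroids with endothelial and stromal cells, exposed to drug combinations. Top concentration at or near clinical Cmax (else 10 microM), diluted in half-log increments.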
# 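Note: spheroids exposed to compounds for seven days before readout.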
structure (smiles),measurement,setting,value
Cc1cccc(N(C)C(=O)C2C(O)CCN2c2nc(C)cc(C(F)(F)F)c2C#N)c1 (configuration not stated) + Cc1[nH]c2ccc(F)cc2c1-c1nc2c3cccnc3c3ncccc3c2[nH]1,IC50,second compound 0.0316 µM,> 10 µM
same,IC50,second compound 0.1 µM,> 10 µM
same,IC50,second compound 0.316 µM,> 10 µM
same,IC50,second compound 1 µM,> 10 µM
same,IC50,second compound 3.16 µM,> 10 µM
same,IC50,second compound 10 µM,> 10 µM
same,"viability, T/C","second compound 0.0316 µM, first compound 0.0316 µM",109%
same,"viability, T/C","second compound 0.0316 µM, first compound 0.1 µM",124%
same,"viability, T/C","second compound 0.0316 µM, first compound 0.316 µM",105%
same,"viability, T/C","second compound 0.0316 µM, first compound 1 µM",106%
same,"viability, T/C","second compound 0.0316 µM, first compound 3.16 µM",95.2%
same,"viability, T/C","second compound 0.0316 µM, first compound 10 µM",92.3%
same,"viability, T/C","second compound 0.1 µM, first compound 0.0316 µM",102%
same,"viability, T/C","second compound 0.1 µM, first compound 0.1 µM",88%
same,"viability, T/C","second compound 0.1 µM, first compound 0.316 µM",107%
same,"viability, T/C","second compound 0.1 µM, first compound 1 µM",76.3%
same,"viability, T/C","second compound 0.1 µM, first compound 3.16 µM",104%
same,"viability, T/C","second compound 0.1 µM, first compound 10 µM",86.4%
same,"viability, T/C","second compound 0.316 µM, first compound 0.0316 µM",93.2%
same,"viability, T/C","second compound 0.316 µM, first compound 0.1 µM",91.2%
same,"viability, T/C","second compound 0.316 µM, first compound 0.316 µM",98.8%
same,"viability, T/C","second compound 0.316 µM, first compound 1 µM",76.9%
same,"viability, T/C","second compound 0.316 µM, first compound 3.16 µM",91.4%
same,"viability, T/C","second compound 0.316 µM, first compound 10 µM",80.5%
same,"viability, T/C","second compound 1 µM, first compound 0.0316 µM",79.7%
same,"viability, T/C","second compound 1 µM, first compound 0.1 µM",89.4%
same,"viability, T/C","second compound 1 µM, first compound 0.316 µM",85.2%
same,"viability, T/C","second compound 1 µM, first compound 1 µM",82.5%
same,"viability, T/C","second compound 1 µM, first compound 3.16 µM",93.8%
same,"viability, T/C","second compound 1 µM, first compound 10 µM",87.1%
same,"viability, T/C","second compound 3.16 µM, first compound 0.0316 µM",70.2%
same,"viability, T/C","second compound 3.16 µM, first compound 0.1 µM",75.2%
same,"viability, T/C","second compound 3.16 µM, first compound 0.316 µM",84.8%
same,"viability, T/C","second compound 3.16 µM, first compound 1 µM",91.1%
same,"viability, T/C","second compound 3.16 µM, first compound 3.16 µM",95.6%
same,"viability, T/C","second compound 3.16 µM, first compound 10 µM",72.6%
same,"viability, T/C","second compound 10 µM, first compound 0.0316 µM",68.4%
same,"viability, T/C","second compound 10 µM, first compound 0.1 µM",78.4%
same,"viability, T/C","second compound 10 µM, first compound 0.316 µM",83.8%
same,"viability, T/C","second compound 10 µM, first compound 1 µM",79.9%
same,"viability, T/C","second compound 10 µM, first compound 3.16 µM",88.3%
same,"viability, T/C","second compound 10 µM, first compound 10 µM",72%

# Source: PubChem BioAssay AID2060492 (Molecular Pharmacology Branch, DTP, NCI, 2025)
